{"source": "patent US20240148627A1", "about": "“[…] FOR THE SKIN” (priority 2021, published 2024)", "tested_on": "Vaccinia virus Elstree strain", "assay_type": "cell-based"}
{"compound": "C=O", "note": "[formaldehyde]", "values": [{"measurement": "Reference trial inactivation of the virus", "result": "3.13E+00", "unit": "log DIT C50"}]}
